The structures appear in SMILES notation.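 These data come from cells grown in 96-well plates and exposed to compound for 48 hours at five concentrations. Here, GI50 denotes the concentration required for 50% inhibition of growth. At the TGI there is no net growth.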

Some test systems named below: NCI/ADR-RES ovarian; RXF 393 renal; NCI-H226 lung; HS 578T breast; SNB-75 CNS; SW-620 colon; SN12C renal; U251 CNS; HCT-15 colon; OVCAR-8 ovarian.
Experiment in all cases: NCI tumour cell line growth inhibition, 48 h

Consider `CC(=O)NC(CCc1ccc(Cl)c(Cl)c1)c1cccc(O)c(=O)c1` (stereo not given), for which the GI50 is 0.338 µM with NCI/ADR-RES ovarian; 0.722 µM in the test with RXF 393 renal; 0.633 µM with NCI-H226 lung; 2.61 µM in the test on HS 578T breast; 1.87 µM with SNB-75 CNS; 0.531 µM in the test with SW-620 colon. For the same compound, the GI50 was 0.485 µM in the test on SN12C renal, 0.428 µM in the test with U251 CNS, 0.131 µM in the test with HCT-15 colon and 0.346 µM with OVCAR-8 ovarian. Also, the TGI with NCI/ADR-RES ovarian was 4.92 µM; in the test with RXF 393 renal, 14.9 µM; in the test with NCI-H226 lung, 14.2 µM; with HS 578T breast, 32.5 µM; in the test with SNB-75 CNS, 17.1 µM; in the test on SW-620 colon it was 23.7 µM. The TGI worked out at 13.1 µM with SN12C renal, 11.5 µM in the test on U251 CNS, 19.6 µM in the test on HCT-15 colon and 13.1 µM in the test with OVCAR-8 ovarian.
Turning to `CCN(CC)CCOc1ccc(/C(=C(\C)Cc2ccc(OC)cc2)c2ccc(O)cc2)cc1`, the GI50 in the test with NCI/ADR-RES ovarian is 2.43 µM; with RXF 393 renal, 1.51 µM; in the test on NCI-H226 lung, 1.86 µM; with HS 578T breast it was 1.69 µM; in the test with SNB-75 CNS, 1.58 µM; with SW-620 colon it was 1.7 µM. Moreover, the GI50 was 1.53 µM in the test on SN12C renal, 1.63 µM in the test with U251 CNS, 1.49 µM with HCT-15 colon and 2.12 µM in the test with OVCAR-8 ovarian. Besides, the TGI came out at 7.74 µM in the test on NCI/ADR-RES ovarian; 2.91 µM in the test on RXF 393 renal; 4.26 µM in the test with NCI-H226 lung; 4.22 µM in the test with HS 578T breast; 3.38 µM with SNB-75 CNS; 3.37 µM with SW-620 colon. Moreover, the TGI stood at 3.03 µM in the test with SN12C renal, 3.09 µM in the test with U251 CNS, 3 µM with HCT-15 colon and 5.14 µM with OVCAR-8 ovarian.
`N=C1C(c2nc3ccccc3c(=O)[nH]2)=C(O)CN1c1cccc(Cl)c1`: the GI50 in the test on NCI/ADR-RES ovarian is 3.16 µM; in the test with RXF 393 renal, 2.6 µM; with NCI-H226 lung, more than 100 µM; in the test on HS 578T breast, 2.79 µM; in the test with SNB-75 CNS, 3.83 µM; in the test with SW-620 colon it was 3.28 µM. The GI50 in the test on SN12C renal was 19.2 µM; with U251 CNS, 2.22 µM; with HCT-15 colon, 1.51 µM; with OVCAR-8 ovarian, 5.35 µM. Besides, the TGI with NCI/ADR-RES ovarian was more than 100 µM; with RXF 393 renal it was more than 27.3 µM; in the test on NCI-H226 lung, more than 100 µM; in the test with HS 578T breast it was 12.3 µM; in the test on SNB-75 CNS, more than 100 µM; in the test with SW-620 colon it was more than 100 µM. Besides, the TGI in the test with SN12C renal was more than 100 µM; in the test with U251 CNS it was more than 50 µM; in the test with HCT-15 colon, more than 100 µM; in the test on OVCAR-8 ovarian, more than 100 µM.
For `C=CCc1cc(O)ccc1O`, the GI50 in the test with NCI/ADR-RES ovarian was 22.7 µM; with RXF 393 renal it was 26.3 µM; in the test with NCI-H226 lung, 44.2 µM; with HS 578T breast, 23.2 µM; in the test with SNB-75 CNS it was 5.74 µM; with SW-620 colon it was 21.6 µM. Besides, the GI50 was 11 µM with SN12C renal, 36.4 µM in the test with U251 CNS, 36 µM with HCT-15 colon and 28.7 µM in the test with OVCAR-8 ovarian. The TGI in the test with NCI/ADR-RES ovarian was more than 100 µM; in the test with RXF 393 renal it was more than 100 µM; in the test on NCI-H226 lung, more than 100 µM; in the test with HS 578T breast it was more than 100 µM; with SNB-75 CNS, more than 100 µM; in the test on SW-620 colon it was 44.8 µM. The TGI was 49.4 µM in the test on SN12C renal, more than 100 µM in the test on U251 CNS, more than 100 µM in the test with HCT-15 colon and more than 100 µM in the test with OVCAR-8 ovarian.
In the case of `CC(C)(Oc1cccc(N2CCC[C@@H](C(=O)N(Cc3ccc(-c4cn[nH]c4)cc3)C3CC3)C2)c1)C(=O)N1CCNCC1`, the GI50 in the test on NCI/ADR-RES ovarian was 24.1 µM; in the test with RXF 393 renal it was 1.85 µM; in the test with NCI-H226 lung it was 5.43 µM; in the test with HS 578T breast, 5.14 µM; in the test with SNB-75 CNS, 1.56 µM; in the test with SW-620 colon it was 15.5 µM. For the same compound, the GI50 with SN12C renal is 12.1 µM; in the test on U251 CNS, 12.6 µM; with HCT-15 colon, 14.6 µM; in the test with OVCAR-8 ovarian, 18.6 µM. The TGI came to 73.6 µM in the test on NCI/ADR-RES ovarian; 8.26 µM with RXF 393 renal; 21 µM in the test with NCI-H226 lung; 29.4 µM in the test with HS 578T breast; 18.3 µM with SNB-75 CNS; 31.5 µM with SW-620 colon. Besides, the TGI in the test on SN12C renal is 25.3 µM; in the test with U251 CNS it was 26.3 µM; in the test with HCT-15 colon it was 28.9 µM; in the test on OVCAR-8 ovarian it was 42.7 µM.
`CCNCCS(=O)(=O)NC[C@@]1(c2ccccc2)SC(NC(=O)C(C)(C)C)=NN1C(=O)C(C)(C)C`: the GI50 was 4.11 µM in the test with NCI/ADR-RES ovarian; less than 0.0223 µM in the test with RXF 393 renal; more than 100 µM in the test with NCI-H226 lung; less than 0.01 µM in the test with HS 578T breast; less than 0.0137 µM in the test on SNB-75 CNS; less than 0.01 µM with SW-620 colon. The GI50 is less than 0.01 µM in the test with SN12C renal, less than 0.01 µM in the test with U251 CNS, 0.399 µM with HCT-15 colon and less than 0.0117 µM in the test on OVCAR-8 ovarian. The TGI in the test with NCI/ADR-RES ovarian is more than 45.8 µM; with RXF 393 renal, more than 62.2 µM; with NCI-H226 lung, more than 100 µM; in the test with HS 578T breast, more than 100 µM; in the test on SNB-75 CNS, more than 73.8 µM; in the test on SW-620 colon, more than 100 µM. The TGI in the test with SN12C renal, in the test with U251 CNS, in the test on HCT-15 colon and in the test on OVCAR-8 ovarian was more than 100 µM throughout.
In the case of `O=C(Nc1nc2ccc(OC(F)(F)F)cc2s1)c1ccc(F)cc1`, the GI50 was 3.35 µM with NCI/ADR-RES ovarian; 2.68 µM in the test with RXF 393 renal; 2.81 µM in the test with NCI-H226 lung; 3.12 µM in the test with HS 578T breast; 3.45 µM in the test on SNB-75 CNS; 3.74 µM with SW-620 colon. In addition, the GI50 in the test on SN12C renal was 2.58 µM; with U251 CNS it was 3.98 µM; with HCT-15 colon, 3.04 µM; with OVCAR-8 ovarian, 4.22 µM. In addition, the TGI with NCI/ADR-RES ovarian was 16.4 µM; with RXF 393 renal, 13.7 µM; in the test on NCI-H226 lung it was more than 100 µM; with HS 578T breast, more than 100 µM; with SNB-75 CNS, 53.9 µM; in the test on SW-620 colon, more than 100 µM. Also, the TGI with SN12C renal was 8.21 µM; with U251 CNS, more than 100 µM; in the test on HCT-15 colon, 10.5 µM; with OVCAR-8 ovarian it was more than 100 µM.

Values taken from PubChem BioAssay (NCI).
